Reference: patent US6306860A, “2,5-pyridinedicarboxylic acid derivatives” (Dong Wha Pharm. Inc. Co., Ltd., priority 1998, dated 2001)
Where a name gives a salt, the structure may show the parent alone.

Experiments:
[1] = target: T1, HBV polymerase (Hepatitis B virus genotype D subtype ayw, UniProt P03156); assay: Inhibitory activities against HBV polymerase (reverse transcriptase activity) in vitro; type: biochemical; details: read-out: Inhibitory activity of HBV-RT (%); for inhibition at 0.01 µg/mL: 0.01 μg/ml; for inhibition at 0.1 µg/mL: 0.1 μg/ml; for inhibition at 1 µg/mL: 1 μg/ml
T1 construct: made in house; host or cells: E. coli
Excerpt: Experiment 1:Inhibitory Activities Against HBV Polymerase in vitro
Recently, the inventors of the present invention have produced a recombinant HBV polymerase that is expressed from E.coli transformant, measured its enzyme activity and filed patent applications threrof [Korean Pat. Appl. Nos. 94-3918 and 96-33998].
The inventors have also established a method of measuring the reverse transcriptase activity of HBV polymerase in vitro. The fundamental principle is the same as the ELISA method, and after reacting the substrate with biotin- and DIG-modified nucleotide, a method of recognizing the polymerized substrate as anti-DIG antibody with peroxidase was used.
20 μl of HBV polymerase, 20 μl of reaction mixture and 20 μl of test compound was mixed and reacted at 14° C.~30° C. for 18~24 hours. Then, the inhibitory effect of the test compound against reverse transcriptase activity in the HBV polymerase was examined, compared with the results of control tests without the test compound.

[2] = target: T2, HIV reverse transcriptase (Human immunodeficiency virus type 1 group M subtype B, UniProt P04585); assay: In vitro inhibition test against HIV reverse transcriptase; type: biochemical; details: read-out: Inhibitory activity of HIV-RT (%); for inhibition at 0.1 µg/mL: 0.1 μg/ml; for inhibition at 1 µg/mL: 1 μg/ml
T2 construct: purchased Boehringer Mannheim
Protocol: Experiment 2: The in vitro Inhibition Test Against HIV Reverse Transcriptase
The inhibitory activity in vitro was measured using a non-radioactive reverse transcriptase assay Kit (Boehringer Mannheim).
At first, 20 μl(40 ng) of HIV-RT was added to the wells, coated with streptavidin and with the addition of 20 μl reaction mixture containing template/primer hybrid poly(A)/oligo(dT)15 and DIG-(digoxigenin)-dUTP, biotin-dUTP and TTP, 20 μl of test compound was added and reacted at 37° C. for 1 hour. The control without test compound was used for the comparison of related activity. Since DNA containing nucleotide labeled with digoxigenin and biotine was prepared by the action of HIV-RT, it was combined with streptavidin coated at the bottom of the wells. After the reaction was completed, remaining impurities were removed by washing each well with 250 μl buffer solution (pH 7.0) for 30 seconds 5 times and with the addition of 200 μl anti-DIG-POD antibody, the mixture was reacted at 37° C. for 1 hour. For the removal of remaining impurities again, the reacting solution was washed with a buffer solution and with the addition of 200 μl ABTS™ each, a substrate of POD(peroxidase), the solution was reacted at room temperature for 30 minutes. The absorbance was read by ELISA reader at 405 nm for the assay of reverse transcriptase activity and its inhibition activity.

T1 sequence (P03156 whole entry): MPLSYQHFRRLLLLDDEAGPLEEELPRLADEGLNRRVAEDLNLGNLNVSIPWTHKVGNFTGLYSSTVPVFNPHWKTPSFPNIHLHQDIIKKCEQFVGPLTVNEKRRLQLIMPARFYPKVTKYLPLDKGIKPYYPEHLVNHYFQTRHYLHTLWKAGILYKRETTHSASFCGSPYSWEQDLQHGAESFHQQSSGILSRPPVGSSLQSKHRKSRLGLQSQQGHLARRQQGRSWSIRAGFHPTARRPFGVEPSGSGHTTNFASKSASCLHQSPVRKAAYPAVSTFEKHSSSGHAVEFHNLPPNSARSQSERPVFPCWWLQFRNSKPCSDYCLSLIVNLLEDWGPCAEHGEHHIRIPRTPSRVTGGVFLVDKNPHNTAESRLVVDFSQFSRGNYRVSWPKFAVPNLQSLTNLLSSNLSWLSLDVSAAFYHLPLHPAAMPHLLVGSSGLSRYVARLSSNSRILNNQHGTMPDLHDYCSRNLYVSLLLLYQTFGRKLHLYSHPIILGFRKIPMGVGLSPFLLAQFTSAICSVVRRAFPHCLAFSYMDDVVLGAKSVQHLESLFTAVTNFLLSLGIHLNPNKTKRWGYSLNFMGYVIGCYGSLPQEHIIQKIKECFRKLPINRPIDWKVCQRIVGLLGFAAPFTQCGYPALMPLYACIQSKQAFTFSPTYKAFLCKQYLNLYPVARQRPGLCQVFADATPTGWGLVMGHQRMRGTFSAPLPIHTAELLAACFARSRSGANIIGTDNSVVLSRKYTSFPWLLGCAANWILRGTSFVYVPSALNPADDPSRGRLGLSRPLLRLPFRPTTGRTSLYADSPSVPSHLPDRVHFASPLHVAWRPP

SMILES | inhibition at 0.01 µg/mL [1] | inhibition at 0.1 µg/mL [1] | inhibition at 1 µg/mL [1] | inhibition at 0.1 µg/mL [2] | inhibition at 1 µg/mL [2]
Nc1cccnc1N1CCN(C(=O)c2ccc(C(=O)NCc3ccccn3)cn2)CC1 [Exam. 75, 6-[1-(3-amino-2-pyridyl)piperazin-4-yl-carbonyl]-N-(2-pyridylmethyl)nicotinamide.HCl] | 22% | 54% | 72% | 53% | 72%
O=C(NCCN1CCOCC1)c1ccc(C(=O)N2CCN(CCO)CC2)nc1 [Exam. 102, 6-[1-(2-hydroxyethyl)piperazin-4-yl-carbonyl]-N-[2-(morpholin-4-yl)-ethyl]nicotinamide.HCl] | 32% | 56% | 70% | 25% | 40%
CC(C)Nc1cccnc1N1CCN(C(=O)c2ccc(C(=O)NCCc3c[nH]cn3)cn2)CC1 [Exam. 80, N-[2-(1H-imidazol4-yl)ethyl]-6-[1-[3-(isopropylamino)-2-pyridyl]piperazin-4-yl-carbonyl]nicotinamide] | 52% | 61% | 70% | 21% | 48%
CC(C)CNc1cccnc1N1CCN(C(=O)c2ccc(C(=O)NCCO)cn2)CC1 [Exam. 22] | 54% | 60% | 86% | 50% | 60%
CC[C@H](CO)NC(=O)c1ccc(C(=O)N2CCN(c3ncccc3NC(C)C)CC2)nc1 [Exam. 7, 5-[N-[(1R)-1-ethyl-2-hydroxyethyl]carbamoyl]-2-[1-[3-(isopropylamino)-2-pyridyl]piperazin-4-yl-carbonyl]pyridine] | 53% | 64% | 70% |  | 
Cc1cc(NC(=O)c2ccc(C(=O)N3CCN(c4ncccc4NC(C)C)CC3)nc2)n[nH]1 [Exam. 66, 6-[1-[3-(isopropylamino)-2-pyridyl]piperazin-4-yl-carbonyl]-N-(5-methyl-1H-pyrazol-3-yl)nicotinamide] | 20% | 53% | 70% | 52% | 76%
CC(C)Nc1cccnc1N1CCN(C(=O)c2ccc(C(=O)NCCN3CCOCC3)cn2)CC1 [Exam. 59, 2-[1-[3-(isopropylamino)-2-pyridyl]piperazin-4-yl-carbonyl]-5-[N-[2-(morpholin-4-yl)ethyl]carbamoyl]pyridine] | 49% | 60% | 70% | 15% | 61%
CC(C)Nc1cccnc1N1CCN(C(=O)c2ccc(C(=O)NCc3ccco3)cn2)CC1 [Exam. 79, N-(2-Furylmethyl)-6-[1-[3-(isopropylamino)-2-pyridyl]piperazin-4-yl-carbonyl]nicotinamide.HCl] | 54% | 63% | 78% | 20% | 54%
CC(C)Nc1cccnc1N1CCN(C(=O)c2ccc(C(=O)NC3CC3)cn2)CC1 [Exam. 35, 5-(N-cyclopropylcarbamoyl)-2-[1-[3-(isopropylamino)-2-pyridyl]piperazin-4-yl-carbonyl]pyridine] | 5% | 51% | 62% | 30% | 68%
CC(C)Nc1cccnc1N1CCN(C(=O)c2ccc(C(=O)NCCc3ccccn3)cn2)CC1 [Exam. 82, 6-[1-[3-(isopropylamino)-2-pyridyl]piperazin-4-yl-carbonyl]-N-[2-(2-pyridyl)ethyl]nicotinamide] | 24% | 53% | 67% | 65% | 80%
CC(C)Nc1cccnc1N1CCN(C(=O)c2ccc(C(=O)Nc3nncs3)cn2)CC1 [Exam. 69, 6-[1-[3-(isopropylamino)-2-pyridyl]piperazin-4-yl-carbonyl]-N-(1,3,4-thiadiazol-2-yl)nicotinamide] | 12% | 47% | 64% | 35% | 67%
CC(C)Nc1cccnc1N1CCN(C(=O)c2ccc(C(=O)N(CCO)c3ccccc3)cn2)CC1 [Exam. 17] | 42% | 53% | 66% |  | 
CC(C)(CO)NC(=O)c1ccc(C(=O)N2CCN(c3ncccc3N)CC2)nc1 [Exam. 21, 2-[1-(3-amino-2-pyridyl)piperazin-4-yl-carbonyl]-5-[N-(1,1-dimethyl-2-hydroxyethyl)carbamoyl]pyridine] | 38% | 62% | 70% |  | 
CC(C)Nc1cccnc1N1CCN(C(=O)c2ccc(C(=O)N[C@H](C)CO)cn2)CC1 [Exam. 3, 5-[N-[(1R)-2-hydroxy-1-methylethyl]carbamoyl]-2-[1-[3-(isopropylamino)-2-pyridyl]piperazin-4-yl-carbonyl]pyridine] | 41% | 57% | 74% |  | 
CCN(CCO)C(=O)c1ccc(C(=O)N2CCN(c3ncccc3NC(C)C)CC2)nc1 [Exam. 14, 5-[N-ethyl-N-(2-hydroxyethyl)carbamoyl]-2-[1-[3-(isopropylamino)-2-pyridyl]piperazin-4-yl-carbonyl]pyridine] |  | 10% | 35% |  | 
COCCNC(=O)c1ccc(C(=O)N2CCN(c3ncccc3NC(C)C)CC2)nc1 [Exam. 39, 2-[1-[3-(isopropylamino)-2-pyridyl]piperazin-4-yl-carbonyl]-5-[N-(2-methoxyethyl)carbamoyl]pyridine] | 60% | 68% | 80% | 65% | 72%
CC(C)Nc1cccnc1N1CCN(C(=O)c2ccc(C(=O)N[C@@H](C)CO)cn2)CC1 [Exam. 4, 5-[N-[(1S)-2-hydroxy-1-methylethyl]carbamoyl]-2-[1-[3-(isopropylamino)-2-pyridyl]piperazin-4-yl-carbonyl]pyridine] | 30% | 39% | 56% |  | 
CC(C)Nc1cccnc1N1CCN(C(=O)c2ccc(C(=O)NCCO)cn2)CC1 [Exam. 1, 5-[N-(2-hydroxyethyl)carbamoyl]-2-[1-[3-(isopropylamino)-2-pyridyl]piperazin-4-yl-carbonyl]pyridine] | 30% | 51% | 54% |  | 
CCNc1cccnc1N1CCN(C(=O)c2ccc(C(=O)NC(C)(C)CO)cn2)CC1 [Exam. 19, 5-[N-(1,1-dimethyl-2-hydroxyethyl)carbamoyl]-2-[1-[3-(ethylamino)-2-pyridyl]piperazin-4-yl-carbonyl]pyridine] | 32% | 56% | 72% |  | 
Nc1cccnc1N1CCN(C(=O)c2ccc(C(=O)NCCO)cn2)CC1 [Exam. 20, 2-[1-(3-Amino-2-pyridyl)piperazine4-yl-carbonyl]-5-[N-(2-hydroxyethyl)carbamoyl]pyridine] | 54% | 67% | 74% |  | 
CC(C)CNc1cccnc1N1CCN(C(=O)c2ccc(C(=O)Nc3ncccc3O)cn2)CC1 [Exam. 86] | 13% | 46% | 71% |  | 
CC(C)Nc1cccnc1N1CCN(C(=O)c2ccc(C(=O)NCCCO)cn2)CC1 [Exam. 2, 5-[N-(3-Hydroxypropyl)carbamoyl]-2-[1-[3-(isopropylamino)-2-pyridyl]piperazine-4-yl-carbonyl]pyridine] | 49% | 60% | 71% |  | 
CCNc1cccnc1N1CCN(C(=O)c2ccc(C(=O)NCCO)cn2)CC1 [Exam. 18, 2-[1-[3-(ethylamino)-2-pyridyl]piperazin-4-yl-carbonyl]-5-[N-(2-hydroxyethyl)carbamoyl]pyridine] | 52% | 69% | 84% |  | 
